In general, EC50 refers to the concentration at which the effect is half-maximal. The term IC50 denotes the concentration that gives 50% inhibition. Read a low IC50 as higher potency.

Assay [1] concerns the target T1, 5'-3' exonuclease PLD3 (Homo sapiens, UniProt Q8IV08).
T1 sequence (Q8IV08 whole entry): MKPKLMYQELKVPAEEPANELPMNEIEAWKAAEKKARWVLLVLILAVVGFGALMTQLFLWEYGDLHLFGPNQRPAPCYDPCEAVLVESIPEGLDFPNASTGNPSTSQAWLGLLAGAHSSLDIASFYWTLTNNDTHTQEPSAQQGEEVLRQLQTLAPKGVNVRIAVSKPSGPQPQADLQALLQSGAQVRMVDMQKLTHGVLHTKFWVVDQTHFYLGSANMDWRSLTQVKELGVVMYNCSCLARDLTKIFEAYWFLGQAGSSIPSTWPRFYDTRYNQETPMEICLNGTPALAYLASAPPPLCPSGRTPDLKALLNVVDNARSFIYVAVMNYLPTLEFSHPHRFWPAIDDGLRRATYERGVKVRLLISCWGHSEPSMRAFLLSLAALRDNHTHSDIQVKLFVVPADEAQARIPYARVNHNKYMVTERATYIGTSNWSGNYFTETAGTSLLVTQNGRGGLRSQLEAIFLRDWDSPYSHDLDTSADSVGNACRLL
The experiment in a line: Activation of PLD3 (unknown origin) using 3'-dT-MUP as substrate by fluorescence-based screening assay.

Assay [2] deals with T1, 5'-3' exonuclease PLD3. Kind of assay: Activation of PLD3 (unknown origin) using 3'-dT-nNPP as substrate by fluorescence-based screening assay.
Assay [3] has as its target T2, 5'-3' exonuclease PLD4 (Homo sapiens, UniProt Q96BZ4).
T2 sequence (Q96BZ4 whole entry): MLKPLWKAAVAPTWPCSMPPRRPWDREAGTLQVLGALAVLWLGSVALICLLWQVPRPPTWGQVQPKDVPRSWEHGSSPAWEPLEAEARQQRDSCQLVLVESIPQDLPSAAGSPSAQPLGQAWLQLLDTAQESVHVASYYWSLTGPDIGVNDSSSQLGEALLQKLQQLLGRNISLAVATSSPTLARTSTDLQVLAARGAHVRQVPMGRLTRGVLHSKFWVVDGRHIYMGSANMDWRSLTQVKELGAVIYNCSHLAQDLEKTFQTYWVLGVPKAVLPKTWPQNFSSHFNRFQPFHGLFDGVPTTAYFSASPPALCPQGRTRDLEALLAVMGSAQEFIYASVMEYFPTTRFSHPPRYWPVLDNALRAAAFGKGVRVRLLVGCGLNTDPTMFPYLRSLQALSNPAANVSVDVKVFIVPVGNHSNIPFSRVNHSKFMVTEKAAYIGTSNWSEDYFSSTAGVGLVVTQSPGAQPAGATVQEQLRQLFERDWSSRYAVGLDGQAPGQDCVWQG
Kind of assay: Activation of PLD4 (unknown origin) using 3'-dT-MUP as substrate by fluorescence-based screening assay.

Assay [4] deals with T2, 5'-3' exonuclease PLD4. Kind of assay: Activation of PLD4 (unknown origin) using 3'-dT-nNPP as substrate by fluorescence-based screening assay.
The target in assay [5] is T3, 5'-3' exonuclease PLD3 (Homo sapiens) (UniProt Q8IV08).
T3 sequence (whole entry): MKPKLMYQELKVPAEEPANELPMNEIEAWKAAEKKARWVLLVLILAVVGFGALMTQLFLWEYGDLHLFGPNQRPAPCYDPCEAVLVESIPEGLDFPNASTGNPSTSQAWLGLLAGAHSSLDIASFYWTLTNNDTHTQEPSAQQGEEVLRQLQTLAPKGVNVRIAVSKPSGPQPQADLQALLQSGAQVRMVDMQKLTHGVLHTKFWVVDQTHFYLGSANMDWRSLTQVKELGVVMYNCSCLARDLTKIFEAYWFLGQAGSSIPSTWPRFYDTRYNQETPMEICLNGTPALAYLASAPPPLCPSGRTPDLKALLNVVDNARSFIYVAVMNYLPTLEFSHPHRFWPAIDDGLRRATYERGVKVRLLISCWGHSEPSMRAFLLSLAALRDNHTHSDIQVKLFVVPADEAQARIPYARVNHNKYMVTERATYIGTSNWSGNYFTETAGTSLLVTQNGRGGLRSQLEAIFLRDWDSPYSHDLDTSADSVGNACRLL
Kind of assay: Activation of PLD3 (unknown origin) assessed as association constant using varying concentration 3'-dT-MUP as substrate by fluorescence-based screening assay. The following applies: filed as activator.

Assay [6] deals with T3, 5'-3' exonuclease PLD3 (Homo sapiens). Kind of assay: Mixed type inhibition of PLD3 (unknown origin) assessed as binding constant using varying concentration 3'-dT-MUP as substrate by fluorescence-based screening assay.
The target is the same in assay [7]. Kind of assay: Mixed type inhibition of PLD3 (unknown origin) assessed as Km using varying concentration 3'-dT-MUP as substrate by fluorescence-based screening assay.
The target in assay [8] is T1, 5'-3' exonuclease PLD3. The experiment in a line: Inhibition of PLD3 (unknown origin) using 3'-dT-nNPP as substrate by fluorescence-based screening assay.
In assay [9] the target is T1, 5'-3' exonuclease PLD3. Kind of assay: Inhibition of PLD3 (unknown origin) using 3'-dT-MUP as substrate by fluorescence-based screening assay.
The target in assay [10] is T2, 5'-3' exonuclease PLD4. The experiment in a line: Inhibition of PLD4 (unknown origin) using 3'-dT-MUP as substrate by fluorescence-based screening assay.
For assay [11], the target named is T2, 5'-3' exonuclease PLD4. Kind of assay: Inhibition of PLD4 (unknown origin) using 3'-dT-nNPP as substrate by fluorescence-based screening assay.
Assay [12] concerns the target T4, 5'-3' exonuclease PLD4 (Homo sapiens) (UniProt Q96BZ4).
T4 sequence (whole entry): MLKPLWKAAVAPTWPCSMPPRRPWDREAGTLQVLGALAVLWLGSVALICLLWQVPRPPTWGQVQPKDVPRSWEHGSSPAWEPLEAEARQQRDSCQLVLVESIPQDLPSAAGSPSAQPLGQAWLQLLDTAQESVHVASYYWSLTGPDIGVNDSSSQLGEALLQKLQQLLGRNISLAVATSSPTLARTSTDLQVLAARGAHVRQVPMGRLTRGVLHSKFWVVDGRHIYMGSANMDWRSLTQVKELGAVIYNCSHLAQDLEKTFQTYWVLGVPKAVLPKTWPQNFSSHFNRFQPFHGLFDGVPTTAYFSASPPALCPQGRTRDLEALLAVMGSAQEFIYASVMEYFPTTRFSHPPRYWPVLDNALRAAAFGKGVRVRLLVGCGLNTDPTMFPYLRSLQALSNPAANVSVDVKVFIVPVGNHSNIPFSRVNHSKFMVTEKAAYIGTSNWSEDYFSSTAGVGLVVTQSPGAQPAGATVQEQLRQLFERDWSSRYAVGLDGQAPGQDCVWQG
Kind of assay: Competitive inhibition of PLD4 (unknown origin) assessed as binding constant using varying concentration 3'-dT-MUP as substrate by fluorescence-based screening assay.

Assay [13] concerns the target T4, 5'-3' exonuclease PLD4 (Homo sapiens). The experiment in a line: Competitive inhibition of PLD4 (unknown origin) assessed as Km using varying concentration 3'-dT-MUP as substrate by fluorescence-based screening assay.

In the case of `Cc1nc(SCC(=O)N2CCC(C)CC2)c2ccsc2n1`, the EC50 at 5'-3' exonuclease PLD3 [1] is 12.8 µM; on 5'-3' exonuclease PLD3 [2] it was 19.6 µM; on 5'-3' exonuclease PLD4 [3], 115 µM; at 5'-3' exonuclease PLD4 [4], “Not Active”. In addition, in assay [5], the Ka is 80.9 µM.

As for `Cc1cc(C)cc(N2CCn3c2nc2c3c(=O)n(CC(=O)O)c(=N)n2C)c1`, the INH turned out to be 28.9 µM in [6], 14.9 µM in [7], 32.4 µM in [12] and 64.5 µM in assay [13]. The IC50 at 5'-3' exonuclease PLD3 [8] was found to be 127 µM; at 5'-3' exonuclease PLD3 [9], 39.6 µM; on 5'-3' exonuclease PLD4 [10], 14.7 µM; at 5'-3' exonuclease PLD4 [11] it was 19 µM.

The record behind these values is ChEMBL document CHEMBL4825729, “Modulators of immunoregulatory exonucleases PLD3 and PLD4 identified by high-throughput screen” (Bioorg Med Chem Lett, 2021).
